From patent US6737383B1, “Herbicidal oxadiazolidines” (priority 1999, dated 2004)

Experiments:
[1] = test system: surinam grass; assay: Test B pre/postemergence surinam grass; type: in vivo, Brachiaria decumbens
Outline: (§1)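 Test chemicals in a non-phytotoxic solvent mixture with surfactant were sprayed preemergence onto planted seeds and postemergence onto plants 2 to 18 cm tall (1- to 4-leaf stage). After twelve to sixteen days in a greenhouse, injury was visually rated against untreated controls from 0 (no effect) to 10 (complete control).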

[2] = test system: cocklebur; assay: Test B pre/postemergence cocklebur; type: in vivo, Xanthium strumarium
Outline: as §1

[3] = test system: corn; assay: Test B pre/postemergence corn; type: in vivo, Zea mays
Outline: as §1

[4] = test system: crabgrass; assay: Test B pre/postemergence crabgrass; type: in vivo, Digitaria sanguinalis
Outline: as §1

[5] = test system: giant foxtail; assay: Test B pre/postemergence giant foxtail; type: in vivo, Setaria faberii
Outline: as §1

[6] = test system: morningglory; assay: Test B pre/postemergence morningglory; type: in vivo, Ipomoea hederacea
Outline: as §1

[7] = test system: pigweed; assay: Test B pre/postemergence pigweed; type: in vivo, Amaranthus retroflexus
Outline: as §1

[8] = test system: rape; assay: Test B pre/postemergence rape; type: in vivo, Brassica napus
Outline: as §1

[9] = test system: soybean; assay: Test B pre/postemergence soybean; type: in vivo, Glycine max
Outline: as §1

[10] = test system: sugar beet; assay: Test B pre/postemergence sugar beet; type: in vivo, Beta vulgaris
Outline: as §1

[11] = test system: wild oat; assay: Test B pre/postemergence wild oat; type: in vivo, Avena fatua
Outline: as §1

[12] = test system: purple nutsedge; assay: Test B pre/postemergence purple nutsedge; type: in vivo, Cyperus rotundus
Outline: as §1

[13] = test system: rice; assay: Test B flood test rice; type: in vivo, Oryza sativa
Outline: (§2)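 Flood test on plants grown to the 2-leaf stage; treated plants kept in greenhouse twelve to sixteen days, then visually rated against controls on a 0 (no effect) to 10 (complete control) scale.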

[14] = test system: smallflower flatsedge; assay: Test B flood test smallflower flatsedge; type: in vivo, Cyperus difformis
Outline: as §2

[15] = test system: duck salad; assay: Test B flood test duck salad; type: in vivo, Heteranthera limosa
Outline: as §2

[16] = test system: bamyardgrass; assay: Test B flood test barnyardgrass; type: in vivo, Echinochloa crus-galli
Outline: as §2

[17] = Preemergence, Rate 62 g/ha, scale of 0 to 10 where 0 is no effect and 10 is complete control
[18] = Preemergence, Rate 250 g/ha, scale of 0 to 10 where 0 is no effect and 10 is complete control
[19] = Preemergence, Rate 500 g/ha, scale of 0 to 10 where 0 is no effect and 10 is complete control
[20] = Rate 62 g/ha, Postemergence, scale 0 to 10 (0 no effect, 10 complete control)
[21] = Rate 125 g/ha, Postemergence, scale of 0 to 10 where 0 is no effect and 10 is complete control
[22] = Rate 125 g/ha, Preemergence, scale of 0 to 10 where 0 is no effect and 10 is complete control
[23] = Rate 250 g/ha, Postemergence, scale of 0 to 10 where 0 is no effect and 10 is complete control
[24] = Rate 500 g/ha, Postemergence, scale 0 to 10, 0 no effect, 10 complete control
[25] = Rate 62 g/ha, headed Pre-emergence (flood test species), scale 0 to 10 (0 no effect, 10 complete control)
[26] = Rate 125 g/ha, Pre-emergence, flood test species, scale 0 to 10 where 0 is no effect and 10 is complete control
[27] = Rate 250 g/ha, Pre-emergence, flood-test species, scale 0 to 10, 0 is no effect, 10 is complete control
[28] = Rate 500 g/ha, Pre-emergence, flood test species, scale 0 to 10 (0 no effect, 10 complete control)

CC1Cc2cccc(-n3c(=O)on(C(=O)N(c4ccc(F)cc4)C(C)C)c3=O)c2O1 (stereo not drawn) [Compound 281]
2: Crabgrass plant response rating [4, 17] | Morningglory plant response rating [6, 20] | Morningglory plant response rating [6, 21] | Redroot pigweed plant response rating [7, 21] | Soybean plant response rating [9, 20] | Wild oats plant response rating [11, 18] | Barnyardgrass plant response rating [16, 28]
6: Redroot pigweed plant response rating [7, 24]
3: Plant response rating, Morningglory [6, 23] | Plant response rating, Soybean [9, 23] | Soybean plant response rating [9, 24] | Plant response rating, Wild oats [11, 19]
5: Morningglory plant response rating [6, 24] | Plant response rating, Redroot pigweed [7, 23]
7: Giant foxtail plant response rating [5, 17]
10: Crabgrass plant response rating [4, 18] | Plant response rating, Crabgrass [4, 19] | Crabgrass plant response rating [4, 22] | Giant foxtail plant response rating [5, 18] | Plant response rating, Giant foxtail [5, 19]
4: Sugarbeets plant response rating [10, 24] | Barnyardgrass plant response rating [16, 27]
9: Giant foxtail plant response rating [5, 22]
0: B. signalgrass plant response rating [1, 17] | B. signalgrass plant response rating [1, 18] | Plant response rating, B. signalgrass [1, 19] | B. signalgrass plant response rating [1, 20] | B. signalgrass plant response rating [1, 21] | B. signalgrass plant response rating [1, 22] | Plant response rating, B. signalgrass [1, 23] | B. signalgrass plant response rating [1, 24] | Cocklebur plant response rating [2, 18] | Plant response rating, Cocklebur [2, 19] | Cocklebur plant response rating [2, 20] | Cocklebur plant response rating [2, 21] | Plant response rating, Cocklebur [2, 23] | Cocklebur plant response rating [2, 24] | Corn plant response rating [3, 17] | Corn plant response rating [3, 18] | Plant response rating, Corn [3, 19] | Corn plant response rating [3, 20] | Corn plant response rating [3, 21] | Corn plant response rating [3, 22] | Plant response rating, Corn [3, 23] | Corn plant response rating [3, 24] | Crabgrass plant response rating [4, 20] | Crabgrass plant response rating [4, 21] | Plant response rating, Crabgrass [4, 23] | Crabgrass plant response rating [4, 24] | Giant foxtail plant response rating [5, 20] | Giant foxtail plant response rating [5, 21] | Plant response rating, Giant foxtail [5, 23] | Giant foxtail plant response rating [5, 24] | Morningglory plant response rating [6, 17] | Morningglory plant response rating [6, 18] | Plant response rating, Morningglory [6, 19] | Morningglory plant response rating [6, 22] | Redroot pigweed plant response rating [7, 17] | Redroot pigweed plant response rating [7, 18] | Plant response rating, Redroot pigweed [7, 19] | Redroot pigweed plant response rating [7, 20] | Redroot pigweed plant response rating [7, 22] | Rape plant response rating [8, 17] | Rape plant response rating [8, 18] | Plant response rating, Rape [8, 19] | Rape plant response rating [8, 20] | Rape plant response rating [8, 21] | Rape plant response rating [8, 22] | Plant response rating, Rape [8, 23] | Rape plant response rating [8, 24] | Soybean plant response rating [9, 17] | Soybean plant response rating [9, 18] | Plant response rating, Soybean [9, 19] | Soybean plant response rating [9, 22] | Sugarbeets plant response rating [10, 17] | Sugarbeets plant response rating [10, 18] | Plant response rating, Sugarbeets [10, 19] | Sugarbeets plant response rating [10, 20] | Sugarbeets plant response rating [10, 21] | Sugarbeets plant response rating [10, 22] | Plant response rating, Sugarbeets [10, 23] | Wild oats plant response rating [11, 17] | Wild oats plant response rating [11, 20] | Wild oats plant response rating [11, 21] | Plant response rating, Wild oats [11, 23] | Wild oats plant response rating [11, 24] | Nutsedge plant response rating [12, 17] | Nutsedge plant response rating [12, 18] | Plant response rating, Nutsedge [12, 19] | Nutsedge plant response rating [12, 20] | Nutsedge plant response rating [12, 21] | Nutsedge plant response rating [12, 22] | Plant response rating, Nutsedge [12, 23] | Nutsedge plant response rating [12, 24] | Rice plant response rating [13, 25] | Rice plant response rating [13, 26] | Rice plant response rating [13, 27] | Rice plant response rating [13, 28] | S. Flatsedge plant response rating [14, 25] | S. Flatsedge plant response rating [14, 26] | S. Flatsedge plant response rating [14, 27] | S. Flatsedge plant response rating [14, 28] | Ducksalad plant response rating [15, 25] | Ducksalad plant response rating [15, 26] | Ducksalad plant response rating [15, 27] | Ducksalad plant response rating [15, 28] | Barnyardgrass plant response rating [16, 25] | Barnyardgrass plant response rating [16, 26]
